Experimental data from patent publication US5714471A, “Peptide and peptide analog protease inhibitors” (SIBIA Neurosciences, Inc., priority 1995, dated 1998).
Non-standard residues stand in square brackets, D forms with d. Residues, ends and D or L forms follow the SMILES beside them. ξ: configuration not given here. *: point of attachment. Chg = N[CH](C(=O)O)C1CCCCC1; Nle = CCCC[CH](N)C(=O)O; Cbz = O=C(OCc1ccccc1)*; ξNle = CCCCC(N)C(=O)O; CHN2 = [N-]=[N+]=C*

test system: Aβ formation in HGB 717/Swed cells; experiment: Immunoblot assay for Aβ peptide (inhibition of Aβ formation); format: cell-based, human; details: concentration of 10 μM, overnight incubation, conditioned medium, relative to DMSO control
Excerpt: Human glioblastoma cells (ATCC Accession No. HTB16) were stably transfected with a DNA expression vector encoding a 695 amino acid isoform variant of the amyloid precursor protein (APP) containing the familial Swedish double mutations at codons 670 and 671 (K to N and M to L, respectively; see Mullan et al. (1992) Nature Genet. 1:345-347) and an additional mutation at codon 717 (V to F; see Murrell et al. (1991) Science 254:97-99) to produce cells designated HGB 717/Swed. High levels of Aβ are detectable in the conditioned medium isolated from HGb 717/Swed cultured cells. The medium also contains larger secreted fragments, α-sAPP695, which are alternatively processed APP fragments whose generation precludes Aβ formation.
HGB 717/Swed cells were grown at 37° C. under a 5% carbon dioxide atmosphere in Dulbecco's modified eagle medium (DMEM; Gibco) supplemented with 10% heat-inactivated fetal calf serum, 0.45% glucose, 2 mM L-glutamine, 100 units/ml penicillin, and 100 μg/ml streptomycin sulfate (Gemini Bioproducts). Approximately 1×10^6 cells were incubated overnight in 5 ml of DMEM containing varying μM final concentrations of desired test compounds or a DMSO control. Conditioned medium was collected, and unwanted cells and debris were removed by sedimentation at 3,000 rpm at 4° C.
Aβ peptides were isolated from the medium by immunoaffinity purification using an Aβ-specific antibody. To reduce the interaction of non-specific binding of unrelated proteins, such as serum proteins, to the antibody, the medium was pre-treated with rabbit antisera and Protein A Sepharose (Pharmacia) for 4 hours at 4° C. The sepharose-bound material was removed by centrifugation at 3,000 rpm at 4° C. for 10 min, and Aβ peptides were immunoaffinity purified from the clarified medium by incubation overnight with an affinity purified polyclonal rabbit antibody (referred to as 2939) prepared against a synthetic Aβ peptide corresponding to amino acids 1 to 28. Protein A-conjugated sepharose was added to immobilize the Aβ-antibody complexes, and the resin was pelleted by centrifugation at 3,000 rpm at 4° C. for 10 min. The Aβ -antibody complexes were eluted from the matrix by denaturing the complex by boiling in the presence of SDS.
Equal portions of each sample were loaded on 16% Tricine gels (Novex), and subjected to electrophoresis. Resolved proteins were transferred from the gel to Hybond nitrocellulose (Amersham, Arlington Heights, Ill.) by electroblotting, and incubated with the commercially available monoclonal antibody 6E10 (obtained from Drs. Kim and Wisniewski, Institute for Basic Research, New York, see, published International PCT application WO 90/12871), which specifically recognizes Aβ residues 1 to 17. Specifically bound antibody was detected using a biotinylated goat anti-mouse IgG secondary antibody (Sigma), followed by the addition of streptavidin conjugated to horseradish preoxidase (Amersham, Arlington Heights, Ill.), and documented by luminescent detection (Amersham). Levels of Aβ peptides were determined by laser densitometry of visualized films. A positive result in the assay is a decrease in the formation of the 4-kDa Aβ peptides relative to the DMSO control.

| Compound | % INHIBITION OF Aβ [%] |
| --- | --- |
| CC(=O)N[C@@H](CC(C)C)C(=O)N[C@@H](CC(C)C)C(=O)NC(C=O)CC1CCCCC1 (mixture of isomers) [Ac--L--L--Cha--(H), N-Ac-L-Leu-L-Leu-DL-cyclohexylalaninal] | 46 |
| C=C(C)CC(C=O)NC(=O)[C@H](Cc1ccccc1)NC(=O)[C@H](CC(C)C)NC(=O)OCc1ccccc1 (mixture of isomers) [Cbz--L--F--Lene--(H), (2SR)-N-Cbz-L-Leu-L-Phe-N-[2-(4-methyl-4-pentenal)]amide] | 69 |
| C=C(C)CC(C=O)NC(=O)[C@H](CC(C)C)NC(=O)[C@H](CC(C)C)NC(=O)OCc1ccccc1 (mixture of isomers) [Cbz--L--L--Lene--(H), (2SR)-N-Cbz-L-Leu-L-Leu N-[2-(4-methyl-4-pentenal)]amide] | 95 |

same assay, conditions: concentration of 40 μM, overnight incubation, conditioned medium, relative to DMSO control

| Compound | % INHIBITION OF Aβ [%] |
| --- | --- |
| C=C(C)CC(C=O)NC(=O)[C@H](CC(C)C)NC(=O)[C@H](CC(C)C)OCc1ccccc1 (mixture of isomers) [2S--benzoxyvaleric--L--Lene--(H), (2SR)-N-[(2S)-2-benzoxy-4-methylpentanoyl]-L-Leu N-[2-(4-methyl-4-pentenal)]amide] | 85 |
| CC(C)C[C@H](NC(=O)OCc1ccccc1)C(=O)N[C@@H](Cc1ccccc1)C(=O)NC(C=O)CC1CCCCC1 (mixture of isomers) [Cbz--L--F--Cha--(H), (2SR)-N-Cbz-L-Leu-L-Phe-DL-cyclohexylalaninal] | 100 |
| CCCCC(C=O)NC(=O)[C@H](CC(C)C)N(C)C(=O)[C@H](CC(C)C)NC(=O)OCc1ccccc1 (mixture of isomers) [Cbz--L--[CH3]--L--Nl--(H), N-Cbz-L-Leu-L-(methyl)Leu-DL-norleucinal] | 77 |
| CCCCC(C=O)NC(=O)C(CC(C)C)NC(=O)C1CCCN1C(=O)OCc1ccccc1 [Cbz--P--L--Nl--(H), N-Cbz-L-Pro-L-Leu-L-norleucinal] (Cbz-Pro-Leu-[Nle]-aldehyde; configuration not given here) | 80 |
| N-Cbz-L-Leu-L-Leu-DL-(methyl)norleucinal [Cbz--L--L--[CH3]--Nl--(H)] | 97 |

same assay, conditions: concentration of 50 μM, overnight incubation, conditioned medium, relative to DMSO control

| Compound | % INHIBITION OF Aβ [%] |
| --- | --- |
| CCCCC(C=O)NC(=O)[C@H](CC(C)C)NC(=O)[C@H](CC(C)C)NC(=O)OCC1c2ccccc2-c2ccccc21 (mixture of isomers) [Fmoc--L--L--Nl--(H), N-Fmoc-L-Leu-L-Leu-DL-norleucinal] | 89 |

same assay, conditions: concentration of 75 μM, overnight incubation, conditioned medium, relative to DMSO control

| Compound | % INHIBITION OF Aβ [%] |
| --- | --- |
| CCCCC(NC(=O)[C@H](CC(C)C)NC(=O)[C@H](CC(C)C)NC(C)=O)C(=O)C(F)(F)F (mixture of isomers) [Ac--L--L--Nl--(TFMK), (3SR)-N-Ac-L-Leu-L-Leu N-[3-(1,1,1-trifluoro-2-oxo-heptyl)]amide] | 50 |
| CC=CCC(C=O)NC(=O)[C@H](CC(C)C)NC(=O)[C@H](CC(C)C)NC(C)=O (mixture of isomers) [Ac--L--L--Nlene--(H), (2SR)-N-Ac-L-Leu-L-Leu N [2-(trans-4-hexenal)]amide] | 96 |
| CC(=O)NC(CC(C)C)C(=O)NC(CC(C)C)C(=O)NC(C=O)C1CCCCC1 [Ac--L--L--Chg--(H)] (Ac-Leu-Leu-[Chg]-aldehyde; configuration not given here) | 99 |
| CCCCC(C#N)NC(=O)[C@H](CC(C)C)NC(=O)[C@H](CC(C)C)NC(C)=O (stereo partly drawn) [Ac--L--L--Nl--(CN), (2S)-N-Ac-L-Leu-L-Leu N-[2-(hexanenitrile)]amide] | 94 |
| CCCCC(NC(=O)[C@H](CC(C)C)NC(=O)[C@H](CC(C)C)NC(C)=O)C(=O)C=[N+]=[N-] (stereo partly drawn) [Ac--L--L--Nl--(DM), N-Ac-L-Leu-L-Leu-L-Nle-COCHN2] (Ac-Leu-Leu-[ξNle]-CHN2) | 87 |
